Measurements taken from the NIST ThermoML archive (doi:10.1016/j.jct.2013.01.032).

Assays:
[1] = osmotic coefficient (dimensionless); mn = molality of the nth substance listed, in mol/kg; details: 323.15 K, Liquid, Knauer Osmometer
[2] = mn = molality of the nth substance listed, in mol/kg; details: 101 kPa, Liquid; for speed of sound: Sing-around technique in a fixed-path interferometer; for mass density: Vibrating tube method

CCCCn1cc[n+](C)c1.O=S(=O)([O-])C(F)(F)F [1-butyl-3-methylimidazolium trifluoromethanesulfonate] + CC(C)O
[1]
Details	osmotic coefficient
m1 = 0.0255	0.991
m1 = 0.0473	0.911
m1 = 0.1132	0.844
m1 = 0.1803	0.765
m1 = 0.2949	0.686
m1 = 0.398	0.624
m1 = 0.5052	0.588
m1 = 0.8092	0.518
m1 = 1.205	0.461
m1 = 1.615	0.412
m1 = 2.031	0.391
m1 = 2.42	0.381
m1 = 2.829	0.366
m1 = 3.326	0.356

[2]
Details	mass density, 293.15 K [kg/m3]	speed of sound, 293.15 K [m/s]	speed of sound, 308.15 K [m/s]
m1 = 0.049	789.81	1158.3	1106.4
m1 = 0.1	794.52	1159.5	1108
m1 = 0.152	799.18	1160.9	1109.6
m1 = 0.207	804.09	1162.6	1111.2
m1 = 0.254	808.1	1163.3	1112.5
m1 = 0.51	828.98	1168.6	1119.1
m1 = 0.754	847.24	1173.2	–
m1 = 1.006	864.73	1178.4	–
m1 = 1.525	896.77	1188.1	–
m1 = 1.758	910.13	1192.5	–
m1 = 2.05	925.34	1197.6	–
m1 = 2.526	947.75	1206	–
m1 = 3.011	967.97	1214.3	–
